This is an account of results in US20120035241A1, “USE OF INHIBITORS OF PLAC8 ACTIVITY FOR THE MODULATION OF ADIPOGENESIS” (SANOFI-AVENTIS, priority 2008, published 2012).

Data set [1] concerns SCAT and VAT gene expression. Briefly: cDNA microarray of visceral and subcutaneous adipose tissue of high fat diet fed mice treated with rimonabant. It is filed as in vivo. The note with it: C57BL/6J mice, 6 months HFD, then one month rimonabant 10 mg/kg/day; genes up-regulated by HFD (Plac8 and Rp9h down-regulated). The text has this:
C57BL/6J mice, which are obesity-prone (Collins et al. 2004), were fed for 6 months with a high fat diet (HFD).
RNA from 5 different mice per group was extracted from visceral and subcutaneous adipose tissues using peqGOLD Trifast™ (peqlab) and chloroform-isoamylalcool (24:1) extraction. RNA was precipitated with isopropanol and purified by passage over RNeasy columns (Qiagen). RNA quality was checked before and after amplification with a Bioanalyzer 2100 (Agilent). RNA was reverse transcribed and RNA was amplified with MessageAmp™ kit (Ambion). A Mouse Universal Reference (Clontech) was similarly amplified and both adipose tissue and reference RNAs were labeled by an indirect technique with Cy5 and Cy3 according to published protocols (De Fourmestraux et al., 2004). Labeled RNAs were hybridized to microarrays containing 17664 cDNAs prepared at the DNA Array Facility of the University of Lausanne. Scanning, image, and quality control analyses were performed as previously published (de Fourmestraux et al., J. Biol. Chem. 2004 279:50743-53). Data were expressed as log2 intensity ratios (Cy5/Cy3), normalized with a print tip locally weighted linear regression (Lowess) method and filtered based on spot quality and incomplete annotation. All analyses were performed with the R software for statistical computing available at the Comprehensive R Archive Network (cran.us.r-project.org/).

Data set [2] deals with Plac8. Briefly: Retroviral transduction of 3T3-L1 cells with shRNA, Plac8 mRNA by RT-PCR. The conditions noted are these: 3T3-L1 cells infected 6 hours with retroviral vectors, day 0 prior differentiation, RT-PCR (FIG. 3B). The class given is cell-based, mouse. The protocol: 3T3-L1 cells were cultured in DMEM (Gibco) with 10% FBS (Gibco) at 5% CO2. After retroviral infection (see below), cells were allow to grow to confluence in either 100-mm or 60-mm dishes in DMEM with 10% FBS. Once confluence was reached, cells were exposed to differentiation medium containing dexamethasone (1 μM), insulin (5 μg/ml), and isobutylmethylxanthine ([…]) (DMI). After 2 days cells were maintained in medium containing insulin (5 μg/ml) until ready for harvest at 7 days.
Retroviruses were constructed in the RNAi-Ready pSIREN-RetroQ ZsGreen (pSIREN Clontech) or pMSCV puromycin plasmid (pMSCV, Clontech). Viral constructs were transfected using calcium-phosphate method described in Jordan, M., et al. (2004) into 293 HEK packaging cells along with constructs encoding gag-pol and the VSV-G protein. Supernatants were harvested after 48 h in presence of […] of Trichostatin A (Sigma) and either used immediately or snap frozen and stored at −80° C. for later use. Viral supernatants were added to the cells for 6 hours in the presence of polybrene (4 μg/ml) and diluted two times with fresh medium for the next 15 hours.
Total RNA was isolated from cultured cells using peqGOLD TriFast reagent according to the manufacturer's instructions (Axonlab). First strand cDNA was synthesized from 0.5 μg of total RNA using random primers and Superscript II (Invitrogen). […]

Take `Cc1c(C(=O)NN2CCCCC2)nn(-c2ccc(Cl)cc2Cl)c1-c1ccc(Cl)cc1` [rimonabant]: in data set [1], the “expression of 34 gene candidates regulated by HFD in SCAT and VAT” value is “normalized”.

B1: shLuc: negative control siRNA sequence against luciferase, SEQ ID NO. 8 (nucleic acid)
chain: GATCCGTGCGTTGCTAGTACCAATTCAAGAGATTGGTACTAGCAACGCACTTTTTTACGCGTG
modifications: listed as DNA, chemistry not fully specified
Regarding B1, the “knockdown for Plac8 (mRNA)” value in data set [2] is on record as “no inhibition”.
